Test results taken from ChEMBL document CHEMBL3112455, “Synthesis of 6-tetrazolyl-substituted sulfocoumarins acting as highly potent and selective inhibitors of the tumor-associated carbonic anhydrase isoforms IX and XII” (Bioorg Med Chem, 2014).

How the values were obtained:
[1] = target: Carbonic anhydrase 1 (Homo sapiens, UniProt P00915); experiment: Inhibition of human recombinant cytosolic carbonic anhydrase 1 after 6 hrs by stopped flow CO2 hydration method
[2] = target: Carbonic anhydrase 2 (Homo sapiens, UniProt P00918); experiment: Inhibition of human recombinant cytosolic carbonic anhydrase 2 after 6 hrs by stopped flow CO2 hydration method
[3] = target: Carbonic anhydrase 9 (Homo sapiens, UniProt Q16790)
Description: Inhibition of human recombinant transmembrane carbonic anhydrase 9 after 6 hrs by stopped flow CO2 hydration method

[4] = target: Carbonic anhydrase 12 (Homo sapiens, UniProt O43570); experiment: Inhibition of human recombinant transmembrane carbonic anhydrase 12 after 6 hrs by stopped flow CO2 hydration method
Sequence of Carbonic anhydrase 12 (O43570 whole entry): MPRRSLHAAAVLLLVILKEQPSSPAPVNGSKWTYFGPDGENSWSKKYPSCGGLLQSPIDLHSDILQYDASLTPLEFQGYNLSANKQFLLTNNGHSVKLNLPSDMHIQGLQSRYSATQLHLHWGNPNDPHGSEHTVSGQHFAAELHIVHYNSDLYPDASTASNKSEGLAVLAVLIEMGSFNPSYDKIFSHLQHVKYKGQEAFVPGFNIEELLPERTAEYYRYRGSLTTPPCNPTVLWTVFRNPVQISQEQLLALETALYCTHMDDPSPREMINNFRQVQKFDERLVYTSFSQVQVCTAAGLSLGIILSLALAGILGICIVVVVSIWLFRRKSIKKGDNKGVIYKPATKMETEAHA

Sequence of Carbonic anhydrase 1 (P00915 whole entry): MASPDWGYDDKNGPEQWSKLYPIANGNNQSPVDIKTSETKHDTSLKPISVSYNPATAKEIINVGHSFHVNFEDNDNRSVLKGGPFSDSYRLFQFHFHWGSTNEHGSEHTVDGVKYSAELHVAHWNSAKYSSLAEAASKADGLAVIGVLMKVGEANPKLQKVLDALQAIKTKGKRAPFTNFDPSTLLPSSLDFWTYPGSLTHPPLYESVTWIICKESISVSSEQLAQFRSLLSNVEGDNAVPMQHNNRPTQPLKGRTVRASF

Row | Ki [1] | Ki [2] | Ki [4] | SMILES | Ki [3]
1 | > 10 µM | > 10 µM | – | O=S1(=O)C=Cc2cc(-n3cnnn3)ccc2O1 | –
2 | > 10 µM | > 10 µM | – | Cc1nnnn1-c1ccc2c(c1)C=CS(=O)(=O)O2 | –
3 | > 10 µM | > 10 µM | – | O=S1(=O)C=Cc2cc(-c3nnnn3-c3ccccc3)ccc2O1 | –
4 | > 10 µM | > 10 µM | – | Cc1ccc(-n2nnnc2-c2ccc3c(c2)C=CS(=O)(=O)O3)cc1 | 0.0091 µM
5 | > 10 µM | > 10 µM | – | O=S1(=O)C=Cc2cc(-c3nnnn3-c3cccc(Br)c3)ccc2O1 | 0.0568 µM
6 | > 10 µM | > 10 µM | 0.0054 µM | O=S1(=O)C=Cc2cc(-c3nnnn3-c3ccc(F)c(Cl)c3)ccc2O1 | 0.0069 µM
7 | > 10 µM | > 10 µM | – | O=S1(=O)C=Cc2cc(-c3nnnn3-c3cccc4ccccc34)ccc2O1 | –

Second part, the compound before the results:

Row | SMILES | Ki [1] | Ki [2] | Ki [4] | Ki [3]
8 | Cc1cccc(-n2nnnc2-c2ccc3c(c2)C=CS(=O)(=O)O3)c1 | > 10 µM | > 10 µM | – | 0.0271 µM
9 | COc1ccc(-n2nnnc2-c2ccc3c(c2)C=CS(=O)(=O)O3)cc1 | > 10 µM | > 10 µM | – | 0.0087 µM
10 | O=S1(=O)C=Cc2cc(-c3nnnn3-c3ccc(C(F)(F)F)cc3)ccc2O1 | > 10 µM | > 10 µM | – | 0.0393 µM
11 | O=S1(=O)C=Cc2cc(-c3nnnn3-c3ccc(Cl)cc3)ccc2O1 | > 10 µM | > 10 µM | – | 0.0088 µM
12 | O=S1(=O)C=Cc2cc(-c3nnnn3-c3ccc(Cl)c(Cl)c3)ccc2O1 | > 10 µM | > 10 µM | – | 0.0082 µM
